Reference: patent publication US5342851A, “Substituted thiazole derivatives useful as platelet aggregation inhibitors” (McNeil-PPC, Inc., priority 1992, dated 1994)
Structures can show the parent of a compound that is named as a salt.

Key:
[1] = tested on: activated platelets (125I-fibrinogen binding); test: Fibrinogen Binding (125I-fibrinogen binding to activated platelets); settings: read-out: Binding (IC50, concentration of compound which provides 50% fibrinogen binding); thrombin-stimulated platelets; 0.15 μM 125I-fibrinogen
Experimental: The compounds of the invention as identified above are evaluated for platelet aggregation inhibition activity as indicated by the percentage of nonaggregated platelets which are available for binding in accordance with the following procedure.
Briefly, 40 mL of PRP (obtained from Biological Specialty Corp., Lansdale, Pa.) are centrifuged at 120×g to remove contaminating red cells. Aspirin (50 μM) is added and the PRP is incubated at 37° C. for 20 minutes. […] Platelets are concentrated by a 300×g centrifugation (10 minutes) and the pellet is resuspended in 4 mL. of Tyrode's buffer. The platelet suspension (4 mL) is gel-filtered through a Sepharose-2B column (50 mL bed volume). […] The binding reaction is performed in polystyrene tubes (final volume […]). Reagents are added in the following order: 80 mL of Tyrode's buffer, 50 mL of CaCl2 (final concentration (f.c.) […]) and 50 mL of thrombin (f.c. 0.1 unit/mL). The platelet suspension is then added and the mixture is allowed to incubate at room temperature for 2 minutes. Hirudin (50 mL, f.c. 0.5 unit/mL) is immediately added to prevent the catalytic activity of thrombin. […] The mixture is incubated for 10 minutes at room temperature. To terminate the binding reaction the platelets are sedimented (10,000×g for 3 minutes) through silicone oil (3:1 hi-phenol 550/methyl silicone 200, W. F. Nye, Inc., New Bedford, Mass.), in an Eppendorf centrifuge.
The amount of platelet radioactivity measured in the presence of nonlabeled fibrinogen (4 mg/mL) is considered the nonspecific binding. All samples are repeated in triplicate.
Positive percentages of fibrinogen binding indicates higher activity for inhibiting platelet aggregation since only non-aggregated or free platelets are available for fibrinogen binding.

[2] = tested on: platelets (gel-filtered platelet rich plasma); test: Platelet Aggregation Inhibition Activity (agonist thrombin or ADP, light transmission); assay type: cell-based; settings: for IC50: read-out: Aggregation (IC50, concentration at which the increase in light transmission equals 50%), thrombin or ADP agonist, 37° C., three minutes
Experimental: The percentage of platelet aggregation is calculated as an increase in light transmission of drug treated platelet concentrate versus control treated platelet concentrate. Blood is obtained from drug free, normal donors into tubes containing 0.13M sodium citrate (two sources are routinely used: platelet concentrate obtained from Biological Specialty Corp., Lansdale, Pa. or whole blood obtained from donors). Platelet rich plasma (PRP) is collected by centrifugation of the concentrate or whole blood at 130×g for 15 minutes at 25° C. The PRP (5 mL) is gel filtered through Sepharose 2B (bed volume 50 mL), and the platelet count is adjusted to 2×10^7 platelets per sample. The following constituents are added to a siliconized cuvette: 250 μL of the concentrated platelet filtrate, 100 μL of Tyrode's buffer (0.14M NaCl, 0.0027M KCl, 0.012M NaHCO3, 0.76 mM Na2 HPO4, 0.0055M glucose and 2 mg/mL BSA pH 7.4), 50 μL of 2 mM calcium and test drug (50 mL).
Aggregation is monitored in a dual channel Chrono-log Aggregometer for three minutes following the addition of agonist (thrombin 50 μL of 1 unit/mL, or ADP 50 μL of 100 μM). The final assay volume is 500 μL. The reaction takes place at 37° C. The peak aggregation response is calculated as the increase in light transmission units over a three minute period. The difference of the increase in light transmission between control and drug treated platelets is then expressed as a percent of the nondrug treated controls. […] A percentage increase in light transmission indicates platelet aggregation inhibition activity for the tested compound.

[3] = Homo sapiens, thrombin or ADP agonist, read-out: Aggregation (percentage increase in light transmission)

SMILES	IC50 [1]	IC50 [2]	also measured
CCN(CC)CCNC(=O)c1cnn(-c2nc(-c3ccc([N+](=O)[O-])cc3)cs2)c1C(F)(F)F [Example 35]		75 µM	
CN(C)CCCNC(=O)c1cnn(-c2nc(-c3ccc([N+](=O)[O-])cc3)cs2)c1C(F)(F)F [Example 36]	50 µM		
CCN(CC)CCCNC(=O)c1cnn(-c2nc(-c3cccc(C(F)(F)F)c3)cs2)c1C(F)(F)F [Example 37]	4 µM	15 µM	
CCCCN(CCCC)CCCNC(=O)c1cnn(-c2nc(-c3cccc(C(F)(F)F)c3)cs2)c1C(F)(F)F [Example 38]	75 µM	56 µM	
CCN(CC)CCCNC(=O)c1cnn(-c2nc(-c3cccc(OC)c3)cs2)c1C(F)(F)F [Example 40]	65 µM	30 µM	
CCN(CC)CCCNC(=O)c1cnn(-c2nc(-c3ccc(OC)cc3)cs2)c1C(F)(F)F [Example 41]		30 µM	
CCN(CC)CCCNC(=O)c1cnn(-c2nc(-c3ccc(C)cc3)cs2)c1C(F)(F)F [Example 43]	70 µM	6 µM	
CCN(CC)CCCNC(=O)c1cnn(-c2nc(-c3cc(OC)c(OC)c(OC)c3)cs2)c1C(F)(F)F [Example 47]		5.6 µM	
CCN(CC)CCCNC(=O)c1cnn(-c2nc(-c3ccccc3)cs2)c1C(F)(F)F [Example 50]	50 µM	30 µM	
O=C(NCCN1CCCC1)c1cnn(-c2nc(-c3cccc(C(F)(F)F)c3)cs2)c1C(F)(F)F [Example 51]		30 µM	
CCN(CC)CCCCNC(=O)c1cnn(-c2nc(-c3cccc(C(F)(F)F)c3)cs2)c1C(F)(F)F [Example 52]		6 µM	
CC1CCCCN1CCCNC(=O)c1cnn(-c2nc(-c3cccc(C(F)(F)F)c3)cs2)c1C(F)(F)F (stereo not shown) [Example 54]		10 µM	
O=C(NCCN1CCCCC1)c1cnn(-c2nc(-c3ccc(C(F)(F)F)cc3)cs2)c1C(F)(F)F [Example 57]		7 µM	
NCCCCCNC(=O)c1cnn(-c2nc(-c3cccc(C(F)(F)F)c3)cs2)c1C(F)(F)F [Example 61]		11.5 µM	
NCCCCNC(=O)c1cnn(-c2nc(-c3cccc(C(F)(F)F)c3)cs2)c1C(F)(F)F [Example 62]	8.3 µM	4.6 µM	
Cc1ccc(-c2csc(-n3ncc(C(=O)NCCCN4CCCCC4)c3C(F)(F)F)n2)cc1 [Example 92]		10 µM	
Cc1ccc(-c2csc(-n3ncc(C(=O)NCCCNC4CCCCC4)c3C(F)(F)F)n2)cc1 [Example 96]		3.5 µM	

SMILES	IC50 [1]	IC50 [2]	also measured
O=C(NCCCNC1CCCCC1)c1cnn(-c2nc(-c3ccc(C(F)(F)F)cc3)cs2)c1C(F)(F)F [Example 105]	44 µM	8 µM	
O=C(NCCCNC1CCCCC1)c1cnn(-c2nc(-c3cccc(Cl)c3)cs2)c1C(F)(F)F [Example 107]		5 µM	
O=C(NCCCNC1CCCCC1)c1cnn(-c2nc(-c3cccc(C(F)(F)F)c3)cs2)c1-c1ccccc1 [Example 108]		20 µM	
O=C(NCCCN1CCCCCC1)c1cnn(-c2nc(-c3cccc(C(F)(F)F)c3)cs2)c1C(F)(F)F [Example 109]		6 µM	
CCCCNCCCNC(=O)c1cnn(-c2nc(-c3cccc(C(F)(F)F)c3)cs2)c1C(F)(F)F [Example 113]	10 µM	3.1 µM	
CCCNCCCNC(=O)c1cnn(-c2nc(-c3cccc(C(F)(F)F)c3)cs2)c1C(F)(F)F [Example 114]	10 µM	7 µM	
CN1CCN(CCCNC(=O)c2cnn(-c3nc(-c4cccc(C(F)(F)F)c4)cs3)c2-c2ccccc2)CC1 [Example 120]	23 µM	13 µM	
NCCCNC(=O)c1cnn(-c2nc(-c3cccc(C(F)(F)F)c3)cs2)c1C(F)(F)F [Example 121, 2-[4-(3-Aminopropylcarbamoyl)-5-(trifluoromethyl)pyrazol-1-yl]-4-(3-trifluoromethylphenyl)thiazole Monohydrochloride]	15 µM	6 µM	
NCCCOCc1cnn(-c2nc(-c3cccc(C(F)(F)F)c3)cs2)c1C(F)(F)F [Example 138, 2-[4-[3-Aminopropoxymethyl]-5-(trifluoromethyl)pyrazol-1-yl]-4-(3-trifluoromethylphenyl)thiazole Hydrochloride]		2.1 µM	
CCN(CC)CCNC(=O)c1ccc(-c2csc(-c3ccc(Cl)cc3)n2)cc1 [Example 177]		12.8 µM	
CCN(CC)CCNC(=O)c1ccc(-c2csc(-c3ccc(C(C)(C)C)cc3)n2)cc1 [Example 181]			inhibition at 20 µM [2, 3]: 85%
COc1ccc(-c2nc(-c3ccc(C(=O)NCCCN(C)C)cc3)cs2)cc1 [Example 187]			inhibition at 20 µM [2, 3]: 89%
CC(C)N(CCCCNC(=O)c1ccc(-c2csc(-c3ccc(C(F)(F)F)cc3)n2)cc1)C(C)C [Example 189]			inhibition at 20 µM [2, 3]: 86%
CCN(CC)CCCNC(=O)c1ccc(-c2csc(COc3ccc(Cl)cc3)n2)cc1 [Example 206]		5.1 µM	
CCCCNCCCNC(=O)c1ccc(-c2csc(-c3ccc(C(F)(F)F)cc3)n2)cc1 [Example 218]			inhibition at 20 µM [2, 3]: 90%
Cn1c(C(=O)NCCCN)ccc1-c1nc(-c2ccccc2)c(C(=O)O)s1 [Example 237, 2-[2-(4-Aminopropylcarbamoyl)-1-methyl-1H-pyrrol-5-yl]-4-phenyl-1,3-thiazole-5-carboxylic acid monohydrochloride monohydrate]			inhibition at 50 µM ([2]; Homo sapiens, at 50 μM, thrombin or ADP agonist, read-out: Aggregation (percentage increase in light transmission)): 68%

The next lines start with results.

IC50 [1]	IC50 [2]	SMILES	also measured
6 µM		CCN(CC)CCNC(=O)c1cnn(-c2nc(-c3cccc(C(F)(F)F)c3)cs2)c1C(F)(F)F [Example 34]	
16 µM	30 µM	CN(C)CCCNC(=O)c1cnn(-c2nc(-c3cccc(C(F)(F)F)c3)cs2)c1C(F)(F)F [Example 39]	
8.5 µM	45 µM	CCCCN(CCCC)CCCNC(=O)c1cnn(-c2nc(-c3ccc(C)cc3)cs2)c1C(F)(F)F [Example 45]	
11.3 µM	2.7 µM	CCN(CC)CCCNC(=O)c1cnn(-c2nc(-c3cccc(C(F)(F)F)c3)c(Br)s2)c1C(F)(F)F [Example 46]	
	30 µM	Cc1cccc(-c2csc(-n3ncc(C(=O)NCCN4CCCCC4)c3C(F)(F)F)n2)c1 [Example 55]	
	4 µM	CCN(CC)CCCNC(=O)c1cnn(-c2nc(-c3ccc(C(F)(F)F)cc3)cs2)c1C(F)(F)F [Example 56]	
10 µM	13 µM	O=C(NCCCN1CCCCC1)c1cnn(-c2nc(-c3cccc(C(F)(F)F)c3)cs2)c1C(F)(F)F [Example 89, 2-[4-[3-(N-Piperidino)propylcarbamoyl]-5-(trifluoromethyl)pyrazol-1-yl]-4-(3-trifluoromethylphenyl)thiazole]	
14 µM	15 µM	O=C(NCCCN1CCCC1)c1cnn(-c2nc(-c3cccc(C(F)(F)F)c3)cs2)c1C(F)(F)F [Example 90]	
10 µM	5 µM	Cc1c(C(=O)NCCCN2CCCCC2)cnn1-c1nc(-c2cccc(C(F)(F)F)c2)cs1 [Example 91]	
	30 µM	Cc1ccc(-c2csc(-n3ncc(C(=O)NCCCN4CCCC4)c3C(F)(F)F)n2)cc1 [Example 93]	
	40 µM	O=C(NCCCN1CCCCC1)c1cnn(-c2nc(-c3ccccc3)cs2)c1C(F)(F)F [Example 94]	
	10 µM	O=C(NCCCN1CCCCC1)c1cnn(-c2nc(-c3ccc(Cl)c(Cl)c3)cs2)c1C(F)(F)F [Example 97]	
	30 µM	Cc1cccc(-c2csc(-n3ncc(C(=O)NCCCN4CCCC4)c3C(F)(F)F)n2)c1 [Example 99]	
	30 µM	O=C(NCCCN1CCCCC1)c1cnn(-c2nc(-c3ccccc3C(F)(F)F)cs2)c1C(F)(F)F [Example 100]	
	15 µM	O=C(NCCCN1CCCC1)c1cnn(-c2nc(-c3ccccc3C(F)(F)F)cs2)c1C(F)(F)F [Example 101]	
25 µM	6 µM	O=C(NCCCNC1CCCCC1)c1cnn(-c2nc(-c3cccc(C(F)(F)F)c3)cs2)c1C(F)(F)F [Example 102]	
	30 µM	O=C(NCCCN1CCCCC1)c1cnn(-c2nc(-c3cccc(Cl)c3)cs2)c1C(F)(F)F [Example 106]	
	5 µM	CC(C)NCCCNC(=O)c1cnn(-c2nc(-c3cccc(C(F)(F)F)c3)cs2)c1C(F)(F)F [Example 112]	
10 µM	14.7 µM	NCCCNC(=O)c1cnn(-c2nc(-c3cccc(Cl)c3)cs2)c1C(F)(F)F [Example 122]	
	7 µM	CN(C)C=NCCCNC(=O)c1cnn(-c2nc(-c3cccc(Cl)c3)cs2)c1C(F)(F)F [Example 132, 2-[4-(3-(N,N-Dimethylformamidinyl)propylcarbamoyl]5-(trifluoromethyl)pyrazol-1-yl]-4-(3-chlorophenyl)thiazole]	
13.5 µM		Cn1c(C(=O)NCCCNC2CCCCC2)ccc1-c1nc(-c2cccc(C(F)(F)F)c2)cs1 [Example 236, 2-[2-(4-Cyclohexylaminopropylcarbamoyl)-1-methyl-1H-pyrrol-5-yl]-4(3-trifluoromethylphenyl)thiazole]	
